Reference: patent US20170273985A1, “TRICYCLIC DERIVATIVE” (Sunovion Pharmaceuticals Inc., priority 2014, published 2017)
pIC50: −log10 of the molar value.

Biological target: PDE1B (Homo sapiens, UniProt Q01064)
Test: In vitro HTRF PDE1 inhibition assay (PDE1B)
Format: biochemical
Conditions: Table 22
From the text: An exemplary procedure for the in vitro Homogenous Time Resolved Fluorescence assay, which can be used to determine the inhibitory action of compounds of the invention toward PDE1 or its isoforms, follows. The HTRF PDE1 assay utilized the HTRF (Homogenous Time Resolved Fluorescence) technology, which is based on the competition between unlabeled cyclic nucleotide and cyclic nucleotide labeled with XL665 for the binding to cyclic nucleotide-specific antibody labeled with cryptate. The HTRF signal is thus inversely proportional to the concentration of cyclic nucleotide being measured. Since phosphodiesterases break down cyclic nucleotides the HTRF signal was used to determine PDE activity. The Cisbio cGMP HTRF assay kit (Cat no: 62GM2PEC) was utilized. Cyclic GMP was diluted to 200 nM in HTRF assay buffer (1 mM CaCl2, 10 mM MgCl2, 10 mM Tris-HCl, 0.1% BSA, pH 7.4). 10 μl of compound or DMSO was diluted in 200 nM cyclic GMP solution and added to wells of a 96 well white plate to give 100 nM cyclic GMP in 1% DMSO final concentration. PDE (1A3, 1B or IC) was diluted to 2× working concentration in HTRF assay buffer with 2 μg/ml calmodulin, and 10 μl was added to initiate the reaction. The plate was then incubated for 45 minutes at 37° C. d2-Labelled cyclic GMP and anti-cGMP cryptate were diluted in 50 mM phosphate buffer, 0.8 M KF, 1% Triton X100, 0.2% BSA, pH 7.0. Following incubation 10 μl d2-cGMP, then 10 μl anti cGMP cryptate were added to each well and the plate was incubated for 45 minutes at room temperature. The plate was then read on Perkin Elmer Victor at 2 different FRET readings ex/emm 340 nm/665 nm and 340 nm/615 nm. Compounds having an IC50 of <1 μM, are denoted as +++. Compounds having an IC50 of 1−10 μM, are denoted as ++. Compounds having an IC50 of 10-100 μM, are denoted as +.

Row | SMILES | pIC50
1 | CC(C)c1ncc2c(=O)n3c(nn12)N(CCCC(O)CO)CC3 (centres unmarked) [Example 110, 1-(4,5-Dihydroxypentyl)-8-isopropyl-2,3-dihydro-1H,5H-diimidazo[2,1-c:5′,1′-f][1,2,4]triazin-5-one] | > 6.00
2 | CC(C)c1ncc2c(=O)n3c(nn12)N(Cc1cccc(C#N)c1)CCC3 [Example 37] | > 6.00
3 | CC(C)c1ncc2c(=O)n3c(nn12)N(CCCCCO)CCC3 [Example 101, 1-(5-Hydroxypentyl)-9-isopropyl-1,2,3,4-tetrahydro-6H-imidazo[5,1-f]pyrimido[2,1-c][1,2,4]triazin-6-one] | > 6.00
4 | CC(C)c1ncc2c(=O)n3c(nn12)N(Cc1ccccc1)CCC3 [Example 2, 1-Benzyl-9-isopropyl-1,2,3,4-tetrahydro-6H-imidazo[5,1-f]pyrimido[2,1-c][1,2,4]triazin-6-one] | > 6.00
5 | CC(C)c1ncc2c(=O)n3c(nn12)N(CC1CCOCC1)CCCC3 [Example 51] | > 6.00
6 | COc1ccc(C2CCn3c(nn4c(C5CCCC5)ncc4c3=O)C2)cc1 (centres unmarked) [Example 136] | 5.00 to 6.00
7 | CC(C)c1ncc2c(=O)n3c(nn12)N(CC1CCN(C)CC1)CCC3 [Example 112, 9-Isopropyl-1-[(1-methyl-4-piperidinyl)methyl]-1,2,3,4-tetrahydro-6H-imidazo[5,1-f]pyrimido[2,1-c][1,2,4]triazin-6-one] | 5.00 to 6.00
8 | CC(C)c1ncc2c(=O)n3c(nn12)N(CCc1ccc(C#N)cc1)CCC3 [Example 38] | > 6.00
9 | CC(C)c1ncc2c(=O)n3c(nn12)N(CCc1cccnc1)CCC3 [Example 42] | > 6.00
10 | CC(C)c1ncc2c(=O)n3c(nn12)N(CC1CCOCC1)C(C)CC3 (centres unmarked) [Example 3, 11-Methyl-10-(oxan-4-ylmethyl)-6-(propan-2-yl)-1,5,7,8,10-pentaazatricyclo[7,4,0,0,3,7]trideca-3,5,8-trien-2-one] | > 6.00
11 | CC(C)c1ncc2c(=O)n3c(nn12)N(CCC1CC1)CCC3 [Example 20] | > 6.00
12 | CCc1ccc(C2Cn3c(nn4c(C(C)C)ncc4c3=O)N2CC)cn1 (single isomer, unassigned) [Example 94] | > 6.00
13 | CC(C)c1ncc2c(=O)n3c(nn12)N(Cc1cccc(C(F)(F)F)c1)CCC3 [Example 32] | > 6.00
14 | CC(C)c1ncc2c(=O)n3c(nn12)N(CCCCCCO)CC3 [Example 103] | > 6.00
15 | N#Cc1ccc(CCN2CCn3c2nn2c(C4CCOCC4)ncc2c3=O)cc1 [Example 58] | > 6.00
16 | CC(C)c1ncc2c(=O)n3c(nn12)N(C(=O)CCN1CCOCC1)CCC3 [Example 125, 9-Isopropyl-1-(3-morpholinopropanoyl)-3,4-dihydro-1H-imidazo[1,5-f]pyrimido[2,1-c][1,2,4]triazin-6(2H)-one] | 5.00 to 6.00
17 | COc1ccc(CC2CCn3c(nn4c(C(C)C)ncc4c3=O)O2)cc1 (centres unmarked) [Example 131] | > 6.00
18 | CCCN1c2nn3c(C4CCOCC4)ncc3c(=O)n2C[C@@H]1c1ccc(CC)nc1 [Example 90] | > 6.00
19 | COCCCCCN1CCn2c1nn1c(C(C)C)ncc1c2=O [Example 8] | > 6.00
20 | O=c1c2cnc(C3CCOCC3)n2nc2n1CCN2CCCCCO [Example 108] | > 6.00

Row | SMILES | pIC50
21 | COc1cccc(CCCN2CCCn3c2nn2c(C(C)C)ncc2c3=O)c1 [Example 49] | > 6.00
22 | CC(C)CN1CCCn2c1nc1c(cnn1C(C)C)c2=O [Example 77] | > 6.00
23 | CC(C)c1ncc2c(=O)n3c(nn12)N(CCc1cccc(C#N)c1)CCC3 [Example 115, 3-(2-(9-Isopropyl-6-oxo-2,3,4,6-tetrahydro-1H-imidazo[1,5-f]pyrimido[2,1-c][1,2,4]triazin-1-yl)ethyl)benzonitrile] | > 6.00
24 | CC(C)c1ncc2c(=O)n3c(nn12)N(CCCCCO)CC3 [Example 102] | > 6.00
25 | CC(C)c1ncc2c(=O)n3c(nn12)N(C)[C@@H](c1ccc(Cl)cn1)C3 [Example 84, (R)-2-(5-Chloropyridin-2-yl)-8-isopropyl-1-methyl-2,3-dihydrodiimidazo[2,1-c:1′,5′-f][1,2,4]triazin-5(1H)-one] | > 6.00
26 | COc1ccc(C2Cn3c(nn4c(C5CCOCC5)ncc4c3=O)N2C)cc1 (centres unmarked) [Example 87] | 5.00 to 6.00
27 | CC(C)c1ncc2c(=O)n3c(nn12)N(CCCc1cccnc1)CC3 [Example 12] | > 6.00
28 | N#Cc1ccc(CN2CCCn3c2nn2c(C4CCOCC4)ncc2c3=O)cc1 [Example 61] | 5.00 to 6.00
29 | O=c1c2cnc(C3CCOCC3)n2nc2n1CCN2CCC1CCCC1 [Example 54] | > 6.00
30 | O=c1c2cnc(C3CCOCC3)n2nc2n1CCCN2CCCc1ccccc1 [Example 63] | > 6.00
31 | CC(C)c1ncc2c(=O)n3c(nn12)N(Cc1ccc(Cl)cc1)CCC3 [Example 31] | > 6.00
32 | CCc1ccc([C@H]2Cn3c(nn4c(C5CCOCC5)ncc4c3=O)N2CC(C)C)cn1 [Example 92] | 5.00 to 6.00
33 | CCCCN1CCCn2c1nn1c(C(C)C)ncc1c2=O [Example 17] | > 6.00
34 | CC(C)n1ncc2c(=O)n3c(nc21)N(Cc1ccc(C(F)(F)F)cc1)CCC3 [Example 80] | > 6.00
35 | CC(C)c1ncc2c(=O)n3c(nn12)N(Cc1ccc(C(F)(F)F)cc1)CCC3 [Example 34] | > 6.00
36 | CC(C)c1ncc2c(=O)n3c(nn12)N(C)CCC3 [Example 14] | > 6.00
37 | CC(C)CCN1CCCn2c1nn1c(C(C)C)ncc1c2=O [Example 19] | > 6.00
38 | CC(C)c1ncc2c(=O)n3c(nn12)N(CCN1CCOCC1)CCC3 [Example 26] | > 6.00
39 | CC(C)c1ncc2c(=O)n3c(nn12)N(CCOCCO)CC3 [Example 104] | > 6.00
40 | CC(C)c1ncc2c(=O)n3c(nn12)N(C)C(c1ccc(Cl)cc1)CC3 (centres unmarked) [Example 72] | > 6.00

Same assay, conditions: Table 25

Row | SMILES | pIC50
41 | CC(C)CCN1CCn2c1nc1c(cnn1C1CCOCC1)c2=O [Example 213] | > 6.00
42 | O=c1c2cnc(C3CCOCC3)n2nc2n1CCN2Cc1ccc(-c2ccccn2)cc1 [Example 161] | > 6.00
43 | COC(C)c1ncc2c(=O)n3c(nn12)N(CCCC(F)(F)F)CCC3 (centres unmarked) [Example 181] | 5.00 to 6.00
44 | CC(C)CCN1CCCn2c1nn1c(C3CCOCC3)ncc1c2=O [Example 185] | > 6.00
45 | CC(C)(C)CCN1CCCn2c1nc1c(cnn1C1CCOCC1)c2=O [Example 229] | > 6.00
46 | CC(C)CN1CCCn2c1nc1c(cnn1C1CCOCC1)c2=O [Example 226] | > 6.00
47 | CCO[C@H]1CC[C@@H](CN2CCCn3c2nn2c(C4CCOCC4)ncc2c3=O)CC1 [Example 196] | > 6.00
48 | CC(C)CN1CCCn2c1nn1c(C3CCOCC3)ncc1c2=O [Example 183] | > 6.00
49 | O=c1c2cnc(C3CCC3)n2nc2n1CCCN2CC1CCOCC1 [Example 178] | > 6.00
50 | O=c1c2cnc(C3CCOCC3)n2nc2n1CCN2CCc1cccc(F)c1 [Example 147] | > 6.00
51 | CC1CN(CCCC(F)(F)F)c2nn3c(C4CCOCC4)ncc3c(=O)n2C1 (centres unmarked) [Example 198] | > 6.00
52 | CC(C)n1ncc2c(=O)n3c(nc21)N(CC1CCC(F)(F)CC1)CC3 [Example 206] | > 6.00
53 | O=c1c2cnn(C3CCOCC3)c2nc2n1CCCN2CC1CC1(F)F (centres unmarked) [Example 227] | > 6.00
54 | O=c1c2cnc(C3CCOCC3)n2nc2n1CCCN2C[C@H]1CC[C@@H](C(F)(F)F)CC1 [Example 195] | > 6.00
55 | COC(C)c1ncc2c(=O)n3c(nn12)N(CCC(C)(C)C)CC3 (centres unmarked) [Example 145] | > 6.00
56 | O=c1c2cnc(C3CCOCC3)n2nc2n1CCCN2C[C@H]1CC[C@H](C(F)(F)F)CC1 [Example 192] | > 6.00
57 | COc1ccc(CN2CCn3c2nn2c(C4CCOCC4)ncc2c3=O)cc1 [Example 157] | > 6.00
58 | COc1cccc(CN2CCn3c2nn2c(C4CCOCC4)ncc2c3=O)c1 [Example 158] | > 6.00
59 | CC(C)c1ncc2c(=O)n3c(nn12)N(CCc1cccnc1)CC3 [Example 140] | > 6.00
60 | O=c1c2cnn(C3CCOCC3)c2nc2n1CCN2Cc1ccc(-c2ccccn2)cc1 [Example 207] | > 6.00
61 | O=c1c2cnn(C3CCOCC3)c2nc2n1CCCN2Cc1ccc(-c2ccccn2)cc1 [Example 220] | > 6.00
62 | O=c1c2cnc(C3CCC3)n2nc2n1CCN2CCCc1ccccn1 [Example 142] | > 6.00
63 | CC(C)c1ncc2c(=O)n3c(nn12)N(CC1CCOCC1)CC(C)(C)C3 [Example 199] | > 6.00
64 | O=c1c2cnn(C3CCOCC3)c2nc2n1CCCN2CC1CCC(F)(F)CC1 [Example 223] | > 6.00
65 | CC(C)n1ncc2c(=O)n3c(nc21)N(Cc1ccc(C2CCOCC2)cc1)CCC3 [Example 216] | > 6.00
66 | O=c1c2cnn(C3CCOCC3)c2nc2n1CCN2Cc1ccc(C(F)(F)F)cc1 [Example 209] | > 6.00
67 | CC(C)CN1CCn2c1nn1c(C3CCOCC3)ncc1c2=O [Example 174] | > 6.00
68 | O=c1c2cnc(C3CCC3)n2nc2n1CCCN2Cc1ccc(Cl)cn1 [Example 179] | > 6.00
